In patent US20040029208A1, “Assay method and kit for testing biological material for exposure to stress using biomarkers” (priority 2000, published 2004):

Experiments:
Type in all cases: in vivo
Anagallis arvensis [1] = assay: TLC plant biomarker pattern after herbicide spraying (greenhouse)
Description: (§1) The experiments were performed in the green-house at the National Environmental Research Institute, Silkeborg, Denmark. All the seeds needed light to germinate, and were sown at the soil surface in individual 11 cm pots. The soil used during the experiments contained: (SM Growing Mould (Growing medium by special soil (sphagnum) added clay granulate), 0-30 mm; grade of turnover 55-75; added per m^3: 3 kg lime (white chalk), 1.5 kg dolit chalk, 40 kg clay granulate; Fertilizer added granulate: NO3-N: 55.0 g; NH4-N: 65.0 g; P: 106.6 g; K: 224.0 g; Mg: 22 g; Micro nutrients added in chelate form, Mo in uorganic form: B-Boron: 1 g; Cu-copper: 6 g; Mn-Manganese: 3 g; Zinc-Zn: 3 g: Fe-iron: 6 g; Mo- molybdenum: 1.4 g).
(§2) During the experiments plants were watered from below, and the temperature in the green-house was maintained between 15° C. and 25° C. with variations due to external weather, and the photoperiod was 16th daylight. The green-house is divided into different units, which allowed for the separate maintenance of the control plants from the sprayed plants to avoid undesirable effects due to vapour drift.
(§3) Glyphosate (Roundup Bio (360 g L^−1) was supplied by Monsanto Denmark A/S. Recommended field dose=1,44 kg a.i. ha^−1. In all the experiments, an automatic sprayer (designed in Denmark by Jens Kristensen 1994) was used where the herbicide application is achieved by moving boom equipment with two ordinary hydraulic flat fan nozzles (Hardi 4110-16). Two pots per spray event were placed in the middle of the spray chamber at 50 cm distance from the nozzle, delivering 200 L of water per-hectare with a desired herbicide concentration (working pressure 2 bars; speed of spray boom=4.7 km h^−1). The spraying was performed starting with the lowest concentration first, progressing towards the highest concentration. Between each herbicide, the sprayer was thoroughly rinsed several times with water. The control plants were sprayed with water.
(§4) The fresh plant material was pressed using a hand press. The extract was immediately centrifuged. (3000 rpm) for 10 minutes. The supernatant was used for analysis. The extracts were kept cool or right above 0° C. during the test to avoid decomposition of biomarkers.
(§5) Freeze-dried plant material was crushed and 250 mg was extracted with 5.00 ml 75% ethanol in an ultrasonic bath for 2 hours. The temperature was kept <0° C. (using ice) during the extraction to avoid decomposition of biomarkers. The extract was centrifuged (3000 rpm) for 10 minutes. The supematant was used for analysis and were kept cool during the test to avoid decomposition of biomarkers.
(§6) The two extracts (freshtfresh ethanol) were applicated immediately on a TLC plate (10 μl on both TLC-Plate types (see below) using cool air-drying. The 75% ethanolic extract was applicated 10 μl on Silica-gel TLC-plates and 5 μl on Cellulose TLC-plates (see below). The fresh/fresh ethanolic extractsare recommended to perform if fresh plant material are to be analysed (field-test). The freeze-dried or frozen plant material extraction Is recommended if the analysis are performed in the laboratory.
[…] Derivatisation: Stock solution 1:50% sulfuric acid in 96% ethanol; Stock solution 2: 2% vanillin in absolut alcohol; Derivatisation-solvent, Fresh produced before us, stock solution 1 and stock solution 2 (1:10); Aftercare: 120° C. in 2-3 min. The plate is valuated visually. The system detects higher alcoholics, phenolic compounds, steroids and etheric oils (Stahl 1969), terpenoids, phenyl propanolds, phenolic compounds (Wagner etea. 1984)
TLC-System 7: HPTLC-Alufolie Silica Gel 60 F2u, Merck 1.05548 (10×10 cm); 10 μl plant extracts plants exposed to glyphosate and control plants; eluted in n-butanol: acetic acid: water (4:1:5) (upper phase after 5 minutes shaking). Derivatisation: 0,5 g p-anisaldehyde diluted in 10 ml conc. acetic acid and 85 ml absolute alcohol is and 5 ml conc. sulfuric acid (added in the following row). The plate is heated to. […]

Centauréa cýanus [2] = assay: as above
Plantágo lanceoláta [3] = assay: as above
Description: as §1, §2, §3, §4, §5, §6
(§7) TLC-System 1: HPTLC-Alufolie Silica Gel 60 F254, Merck 1.05548 (10×10 cm); 10 μl plant extracts plants exposed to glyphosate and control plants; eluted in n-butanol acetic acid: water (4:1:5) (upper phase after 5 minutes shaking). Derivatisation: Stock solution 1:50% sulfuric acid in 96% ethanol; Stock solution 2: 2% vanillin in absolut alcohol; Derivatisation-solvent, Fresh produced before us, stock solution 1 and stock solution 2 (1:10); Aftercare: 120° C. in 2-3 min. The plate is valuated visually. The system detects higher alcoholics, phenolic compounds, steroids and etheric oils (Stahl 1969), terpenoids, phenyl propanolds, phenolic compounds (Wagner etea. 1984) […]

Anagallis arvensis [4] = assay: Visual effect rating (0-9) after herbicide spraying; details: at presence of TLC 7 biomarker
Excerpt: (§8) Four, eight, sixteen and thirty two days after spraying, visual effects on plants were noted before harvest, using the rating chart described in Hamil. et al. (1977) and Boutin et al. (1993); a rating of zero indicates full growth and vigour, and a rating of nine indicates no growth/mortality.
(§9) The min. visual effect (VE) of the presence of plant biomarkers is rated as described by Hamil et al., (1977) and Boutin et al. (1993).

Centauréa cýanus [5] = assay: as above
Excerpt: as §8, §9

Lólium perénne [6] = assay: as above
Excerpt: as §8, §9

Plantágo lanceoláta [7] = assay: as above
Excerpt: as §8, §9

Lólium perénne [8] = assay: TLC plant biomarker pattern after herbicide spraying (greenhouse)
Lólium perénne [9] = assay: as above; details: TLC 1 (non-specific compounds)
Description: as §1, §2, §3, §4, §5, §6, §7

[10] = at presence of TLC 4d biomarker

Row | Compound | Min. of label dose of herbicide with effect (Anagallis arvensis [1]; TLC 7 (non-specific compounds)) [%] | Min. of label dose of herbicide with effect (Centauréa cýanus [2]; TLC 2 (phenolic compounds)) [%] | Min. of label dose of herbicide with effect (Centauréa cýanus [2]; TLC 7 (non-specific compounds)) [%] | Min. of label dose of herbicide with effect (Centauréa cýanus [2]; TLC 4d (amino acids)) [%] | Min. of label dose of herbicide with effect (Plantágo lanceoláta [3]; TLC 2 (phenolic compounds)) [%] | Min. of label dose of herbicide with effect (Plantágo lanceoláta [3]; TLC 6 (lipids and terpens)) [%] | Min. of label dose of herbicide with effect (Plantágo lanceoláta [3]; TLC 4d (amino acids)) [%] | Min. visual effect (Anagallis arvensis [4]) | Min. visual effect (Lólium perénne [6]; at presence of TLC 7 biomarker) | Min. visual effect (Lólium perénne [6]; [10]) | Min. visual effect (Plantágo lanceoláta [7]; at presence of TLC 2 biomarker) | Min. visual effect (Plantágo lanceoláta [7]; at presence of TLC 6 biomarker) | Min. of label dose of herbicide with effect (Lólium perénne [8]; TLC 6 (lipids and terpens)) [%] | Min. of label dose of herbicide with effect (Lólium perénne [8]; TLC 7 (non-specific compounds)) [%] | other results
1 | COC(=O)c1ccccc1S(=O)(=O)NC(=O)Nc1nc(C)nc(OC)n1 [Metsulfuron methyl] | 1 | 1 | 1 | 1 | 1 | 10 | 1 | 1 | 0 | 0 | 0 | 2 | 10 | 10 | Min. of label dose of herbicide with effect (Centauréa cýanus [2]; TLC 6 (lipids and terpens)): 1%; Min. of label dose of herbicide with effect (Plantágo lanceoláta [3]; TLC 1 (non-specific compounds)): 1%; Min. of label dose of herbicide with effect (Plantágo lanceoláta [3]; TLC 7 (non-specific compounds)): 10%; Min. visual effect (Centauréa cýanus [5]; at presence of TLC 6 biomarker): 0; Min. visual effect (Centauréa cýanus [5]; at presence of TLC 7 biomarker): 0; Min. visual effect (Lólium perénne [6]; at presence of TLC 1 biomarker): 0; Min. visual effect (Lólium perénne [6]; at presence of TLC 6 biomarker): 0; Min. visual effect (Plantágo lanceoláta [7]; at presence of TLC 1 biomarker): 0; Min. visual effect (Plantágo lanceoláta [7]; at presence of TLC 7 biomarker): 3
2 | CCC(CC)Nc1c([N+](=O)[O-])cc(C)c(C)c1[N+](=O)[O-] [Pendimethalin] | 10 | 1 | – | 1 | 1 | 1 | 1 | 3 | 0 | 0 | 0 | 0 | – | 1 | Min. of label dose of herbicide with effect (Anagallis arvensis [1]; TLC 1 (non-specific compounds)): 10%; Min. of label dose of herbicide with effect (Anagallis arvensis [1]; TLC 4d (amino acids)): 1%; Min. visual effect (Centauréa cýanus [5]; at presence of TLC 2 biomarker): 0; Min. visual effect (Centauréa cýanus [5]; [10]): 0; Min. visual effect (Plantágo lanceoláta [7]; [10]): 0; Days after exposure (biomarker present) (Lólium perénne [8]; TLC 7 (non-specific compounds)): 8, 16 days; Days after exposure (biomarker present) (Lólium perénne [8]; TLC 4d (amino acids)): 4, 8, 16, 32 days; Min. of label dose of herbicide with effect (Lólium perénne [8]; TLC 4d (amino acids)): 1%
3 | Bromoxynil | 1 | 10 | 1 | – | – | – | – | – | – | – | – | – | 10 | – | Min. of label dose of herbicide with effect (Anagallis arvensis [1]; TLC 6 (lipids and terpens)): 1%; Min. of label dose of herbicide with effect (Lólium perénne [9]): 1%
